# From patent US9555039B2, “Piperidine derivatives and compositions for the inhibition of nicotinamide phosphoribosyltransferase (NAMPT)” (Forma TM, LLC., priority 2011, dated 2017)
# What was measured:
# [1] = molecular target: T1, Recombinant His-tagged NAMPT (Homo sapiens, UniProt P43490); test: Biochemical inhibition assay: NAMPT enzymatic reaction, NMN quantified by mass spectrometry; conditions: 33 nM NAMPT, 1 μM NAM, 100 μM PRPP, 2.5 mM ATP, 30 minutes at room temperature; read-out: Biochem IC50
# T1 construct: His; host or cells: E. coli
# T1 sequence (P43490 whole entry): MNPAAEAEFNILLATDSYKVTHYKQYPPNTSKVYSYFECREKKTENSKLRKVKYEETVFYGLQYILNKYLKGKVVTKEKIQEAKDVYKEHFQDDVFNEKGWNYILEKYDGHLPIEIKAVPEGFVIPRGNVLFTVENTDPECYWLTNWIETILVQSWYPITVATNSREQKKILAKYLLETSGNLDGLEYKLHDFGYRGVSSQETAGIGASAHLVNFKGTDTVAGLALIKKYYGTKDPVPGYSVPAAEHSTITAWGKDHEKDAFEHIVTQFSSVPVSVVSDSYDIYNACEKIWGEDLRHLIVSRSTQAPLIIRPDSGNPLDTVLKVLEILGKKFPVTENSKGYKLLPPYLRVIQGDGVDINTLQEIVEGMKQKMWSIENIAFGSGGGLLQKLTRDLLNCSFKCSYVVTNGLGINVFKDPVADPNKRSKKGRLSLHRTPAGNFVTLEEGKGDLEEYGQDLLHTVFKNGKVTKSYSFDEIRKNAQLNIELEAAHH
# Method: Biochemical Inhibition Assay
# NAMPT Protein Purification
# Recombinant His-tagged NAMPT was produced in E. coli cells, purified over a Ni column, and further purified over a size-exclusion column by XTAL Biostructures.
# The NAMPT Enzymatic Reaction
# The NAMPT enzymatic reactions were carried out in Buffer A (50 mM Hepes pH 7.5, 50 mM NaCl, 5 mM MgCl2, and 1 mM THP) in 96-well V-bottom plates. The compound titrations were performed in a separate dilution plate by serially diluting the compounds in DMSO to make a 100× stock. […] The compound and enzyme mix was incubated for 15 minutes at room temperature, then 10 μL of 10× substrate and co-factors in Buffer A were added to the test well to make a final concentration of 1 μM NAM, 100 μM 5-Phospho-D-ribose 1-diphosphate (PRPP), and 2.5 mM Adenosine 5′-triphosphate (ATP). The reaction was allowed to proceed for 30 minutes at room temperature, then was quenched with the addition of 11 μL of a solution of formic acid and L-Cystathionine to make a final concentration of 1% formic acid and 10 μM L-Cystathionine. Background and signal strength was determined by addition (or non-addition) of a serial dilution of NMN to a pre-quenched enzyme and cofactor mix.
# A mass spectrometry-based assay was used to measure the Nampt reaction product (NMN) and the internal control (L-Cystathionine). NMN and L-Cystathionine were detected using the services of Biocius Lifesciences with the RapidFire system. In short, the NMN and L-Cystathionine are bound to a graphitic carbon cartridge in 0.1% formic acid, eluted in 30% acetonitrile buffer, and injected into a Sciex 4000 mass spectrometer. The components of the sample were ionized with electrospray ionization and the positive ions were detected. […] The fragments are quantified and the analyzed by the following method.
# First the NMN signal is normalized to the L-Cystathionine signal by dividing the NMN signal by the L-Cystathionine signal for each well. The signal from the background wells are averaged and subtracted from the test plates.
# Wherein x denotes the average signal of the compound treated wells and y denotes the average signal of the DMSO treated wells.
# IC50s are Determined Using Excel and this Formula.
# Wherein X denotes the compound concentration 1, Y denotes the compound concentration 2, XX denotes the % inhibition at compound concentration 1 (X), and YY denotes the % inhibition at compound concentration 2 (Y).
# A2780 cells = test: In-vitro cell proliferation assay (SRB, 72 hours); type: cell-based; conditions: Homo sapiens, sulforhodamine B (SRB) assay
# Method: In-Vitro Cell Proliferation Assay
# After overnight incubation at 37° C. and 5% CO2, the compound titrations were performed in a separate dilution plate by serially diluting the compounds in DMSO to make a 1000× stock. The compounds were then further diluted to 10× final concentration in culture media, whereupon 20 μL of each dilution was added to the plated cells with controls (e.g. DMSO and blank) to make a final volume of 200 μL. The final DMSO concentration in each well was 0.1%. The plates were then incubated for 72 hours at 37° C. in a 5% CO2 incubator. The number of viable cells was then assessed using sulforhodamine B (SRB) assay. Cells were fixed at 4° C. for 1 hour with the addition of 50 μL 30% trichloroacetic acid (TCA) to make a final concentration of 6% TCA. The plates were washed four times with H2O and allowed to dry for at least 1 hour, whereupon 100 μL of a 4% SRB in 1% acetic acid solution was added to each well and incubated at room temperature for at least 30 minutes. The plates were then washed three times with 1% acetic acid, dried, and treated with 100 μL of 10 mM Tris-Base solution. The plates were then read in a microplate reader at an absorbance of 570 nm. Background was generated on a separate plate with media only.
# Method for Determining % Inhibition
# First, the signals from the background plate are averaged, then the background was subtracted from the test plates.
# wherein x denotes the average signal of the compound-treated cells and y denotes the average signal of the DMSO-treated cells.
# wherein X denotes the compound concentration 1, Y denotes the compound concentration 2, XX denotes the % inhibition at compound concentration 1 (X), and YY denotes the % inhibition at compound concentration 2 (Y).
Structure (SMILES),IC50 [1],IC50 (A2780 cells)
"Cn1cc(CC(=O)N2CCC(CCCCNC(=O)c3ccc4nccn4c3)CC2)c2ccccc21 [N-(4-{1-[2-(1-methyl-1H-indol-3-yl)acetyl]piperidin-4-yl}butyl)imidazo[1,2-a]pyridine-6-carboxamide]",0.0295 µM,0.0213 µM
"Cn1cc(CC(=O)N2CCC(CCCCNC(=O)c3cc4ccncc4s3)CC2)c2ccccc21 [N-(4-{1-[2-(1-methyl-1H-indol-3-yl)acetyl]piperidin-4-yl}butyl)thieno[2,3-c]pyridine-2-carboxamide]",0.0116 µM,0.024 µM
"Cc1nc(CC(=O)N2CCC(CCCCNC(=O)c3cc4cnccc4[nH]3)CC2)cs1 [N-(4-{1-[2-(2-methyl-1,3-thiazol-4-yl)acetyl]piperidin-4-yl}butyl)-1H-pyrrolo[3,2-c]pyridine-2-carboxamide]",0.0494 µM,0.0139 µM
"Cc1nc(CC(=O)N2CCC(CCCCNC(=O)c3ccc4nccn4c3)CC2)cs1 [N-(4-{1-[2-(2-methyl-1,3-thiazol-4-yl)acetyl]piperidin-4-yl}butyl)imidazo[1,2-a]pyridine-6-carboxamide]",0.0189 µM,0.028 µM
"Cc1nc(CC(=O)N2CCC(CCCCNC(=O)c3cc4ccncc4s3)CC2)cs1 [N-(4-{1-[2-(2-methyl-1,3-thiazol-4-yl)acetyl]piperidin-4-yl}butyl)thieno[2,3-c]pyridine-2-carboxamide]",0.0135 µM,0.0282 µM
"O=C(NCCCCC1CCN(S(=O)(=O)c2ccc(C(F)(F)F)nc2)CC1)c1cc2cnccc2[nH]1 [N-(4-{1-[6-(trifluoromethyl)pyridine-3-sulfonyl]piperidin-4-yl}butyl)-1H-pyrrolo[3,2-c]pyridine-2-carboxamide]",0.0815 µM,0.0298 µM
"O=C(NCCCCC1CCN(C(=O)c2ccc3ncsc3c2)CC1)c1cc2cnccc2[nH]1 [N-(4-{1-[(1,3-benzothiazol-6-yl)carbonyl]piperidin-4-yl}butyl)-1H-pyrrolo[3,2-c]pyridine-2-carboxamide]",0.0727 µM,0.0126 µM
"O=C(NCCCCC1CCN(C(=O)c2ccc3ncsc3c2)CC1)c1ccc2nccn2c1 [N-(4-{1-[(1,3-benzothiazol-6-yl)carbonyl]piperidin-4-yl}butyl)imidazo[1,2-a]pyridine-6-carboxamide]",0.0237 µM,0.0393 µM
"O=C(NCCCCC1CCN(C(=O)c2ccc3ncsc3c2)CC1)c1cc2ccncc2s1 [N-(4-{1-[(1,3-benzothiazol-6-yl)carbonyl]piperidin-4-yl}butyl)thieno[2,3-c]pyridine-2-carboxamide]",0.0323 µM,0.0354 µM
"CC(=O)N1CCC(C(=O)N2CCC(CCCCNC(=O)c3cc4cnccc4[nH]3)CC2)CC1 [N-(4-{1-[(1-acetylpiperidin-4-yl)carbonyl]piperidin-4-yl}butyl)-1H-pyrrolo[3,2-c]pyridine-2-carboxamide]",0.134 µM,0.0239 µM
"CC(=O)N1CCC(C(=O)N2CCC(CCCCNC(=O)c3ccc4nccn4c3)CC2)CC1 [N-(4-{1-[(1-acetylpiperidin-4-yl)carbonyl]piperidin-4-yl}butyl)imidazo[1,2-a]pyridine-6-carboxamide]",0.0396 µM,0.0278 µM
"O=C(NCCCCC1CCN(C(=O)c2cc3ccccc3s2)CC1)c1cc2cnccc2[nH]1 [N-(4-{1-[(1-benzothiophen-2-yl)carbonyl]piperidin-4-yl}butyl)-1H-pyrrolo[3,2-c]pyridine-2-carboxamide]",0.124 µM,0.0699 µM
"O=C(NCCCCC1CCN(C(=O)c2cc3ccccc3s2)CC1)c1ccc2nccn2c1 [N-(4-{1-[(1-benzothiophen-2-yl)carbonyl]piperidin-4-yl}butyl)imidazo[1,2-a]pyridine-6-carboxamide]",0.0258 µM,0.0718 µM
"O=C(NCCCCC1CCN(C(=O)c2cc3ccccc3s2)CC1)c1cc2ccncc2s1 [N-(4-{1-[(1-benzothiophen-2-yl)carbonyl]piperidin-4-yl}butyl)thieno[2,3-c]pyridine-2-carboxamide]",0.0177 µM,0.1 to 1 µM
"Cn1ccnc1C(=O)N1CCC(CCCCNC(=O)c2cc3cnccc3[nH]2)CC1 [N-(4-{1-[(1-methyl-1H-imidazol-2-yl)carbonyl]piperidin-4-yl}butyl)-1H-pyrrolo[3,2-c]pyridine-2-carboxamide]",0.0765 µM,0.0236 µM
"Cn1cnc(C(=O)N2CCC(CCCCNC(=O)c3cc4cnccc4[nH]3)CC2)c1 [N-(4-{1-[(1-methyl-1H-imidazol-4-yl)carbonyl]piperidin-4-yl}butyl)-1H-pyrrolo[3,2-c]pyridine-2-carboxamide]",0.0937 µM,0.055 µM
"Cn1cnc(C(=O)N2CCC(CCCCNC(=O)c3ccc4nccn4c3)CC2)c1 [N-(4-{1-[(1-methyl-1H-imidazol-4-yl)carbonyl]piperidin-4-yl}butyl)imidazo[1,2-a]pyridine-6-carboxamide]",0.0567 µM,0.107 µM
"Cn1c(C(=O)N2CCC(CCCCNC(=O)c3cc4cnccc4[nH]3)CC2)cc2ccccc21 [N-(4-{1-[(1-methyl-1H-indol-2-yl)carbonyl]piperidin-4-yl}butyl)-1H-pyrrolo[3,2-c]pyridine-2-carboxamide]",0.134 µM,0.0238 µM
"Cn1c(C(=O)N2CCC(CCCCNC(=O)c3ccc4nccn4c3)CC2)cc2ccccc21 [N-(4-{1-[(1-methyl-1H-indol-2-yl)carbonyl]piperidin-4-yl}butyl)imidazo[1,2-a]pyridine-6-carboxamide]",0.124 µM,0.0551 µM
"Cn1c(C(=O)N2CCC(CCCCNC(=O)c3cc4ccncc4s3)CC2)cc2ccccc21 [N-(4-{1-[(1-methyl-1H-indol-2-yl)carbonyl]piperidin-4-yl}butyl)thieno[2,3-c]pyridine-2-carboxamide]",0.065 µM,0.1 to 1 µM
"O=C(NCCCCC1CCN(C(=O)c2cc3ccccc3[nH]2)CC1)c1cc2cnccc2[nH]1 [N-(4-{1-[(1H-indol-2-yl)carbonyl]piperidin-4-yl}butyl)-1H-pyrrolo[3,2-c]pyridine-2-carboxamide]",0.125 µM,0.0603 µM
"O=C(NCCCCC1CCN(C(=O)c2cc3ccccc3[nH]2)CC1)c1ccc2nccn2c1 [N-(4-{1-[(1H-indol-2-yl)carbonyl]piperidin-4-yl}butyl)imidazo[1,2-a]pyridine-6-carboxamide]",0.0616 µM,0.1 to 1 µM
"O=C(NCCCCC1CCN(C(=O)c2cc3ccccc3[nH]2)CC1)c1cc2ccncc2s1 [N-(4-{1-[(1H-indol-2-yl)carbonyl]piperidin-4-yl}butyl)thieno[2,3-c]pyridine-2-carboxamide]",0.0335 µM,0.1 to 1 µM
"O=C(NCCCCC1CCN(C(=O)c2ccc3[nH]ccc3c2)CC1)c1cc2cnccc2[nH]1 [N-(4-{1-[(1H-indol-5-yl)carbonyl]piperidin-4-yl}butyl)-1H-pyrrolo[3,2-c]pyridine-2-carboxamide]",0.0394 µM,0.0135 µM
"O=C(NCCCCC1CCN(C(=O)c2ccc3[nH]ccc3c2)CC1)c1ccc2nccn2c1 [N-(4-{1-[(1H-indol-5-yl)carbonyl]piperidin-4-yl}butyl)imidazo[1,2-a]pyridine-6-carboxamide]",0.0195 µM,0.0185 µM
"O=C(NCCCCC1CCN(C(=O)c2ccc3[nH]ccc3c2)CC1)c1cc2ccncc2s1 [N-(4-{1-[(1H-indol-5-yl)carbonyl]piperidin-4-yl}butyl)thieno[2,3-c]pyridine-2-carboxamide]",0.0427 µM,0.0711 µM
